Results reported in PubChem BioAssay (NCI).
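Grown in 96-well plates, cells were treated for 48 hours with each compound at five concentrations. Insufficient inhibition: endpoint recorded as highest concentration tested. Definition used: TGI = concentration required for complete inhibition of growth.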

What was measured:
Assay in all cases: NCI-60 cell line screen, 48 h
[1] = tested on: SF-295 CNS
[2] = tested on: NCI-H23 lung
[3] = tested on: T-47D breast
[4] = tested on: IGROV1 ovarian
[5] = tested on: NCI-H226 lung
[6] = tested on: BT-549 breast
[7] = tested on: MALME-3M melanoma
[8] = tested on: ACHN renal
[9] = tested on: HS 578T breast
[10] = tested on: HCT-15 colon
[11] = tested on: K-562 leukemia
[12] = tested on: U251 CNS
[13] = tested on: HOP-92 NSCLC
[14] = tested on: HL-60(TB) leukemia
[15] = tested on: SK-MEL-5 melanoma
[16] = tested on: HT29 colon
[17] = tested on: 786-0 renal
[18] = tested on: SK-MEL-28 melanoma
[19] = tested on: A549 NSCLC
[20] = tested on: DU-145 prostate
[21] = tested on: PC-3 prostate
[22] = tested on: NCI/ADR-RES ovarian
[23] = tested on: OVCAR-8 ovarian
[24] = tested on: SNB-19 CNS
[25] = tested on: MCF7 breast
[26] = tested on: MOLT-4 leukemia
[27] = tested on: SNB-75 CNS
[28] = tested on: SK-OV-3 ovarian
[29] = tested on: SN12C renal
[30] = tested on: EKVX NSCLC
[31] = tested on: UACC-257 melanoma
[32] = tested on: MDA-MB-435
[33] = tested on: HOP-62 NSCLC
[34] = tested on: OVCAR-5 ovarian
[35] = tested on: MDA-N
[36] = tested on: RPMI-8226 leukemia
[37] = tested on: M14 melanoma
[38] = tested on: SF-539 CNS
[39] = tested on: TK-10 renal
[40] = tested on: KM12 colon
[41] = tested on: UO-31 renal
[42] = tested on: SW-620 colon
[43] = tested on: HCT-116 colon
[44] = tested on: RXF 393 renal
[45] = tested on: CCRF-CEM leukemia
[46] = tested on: OVCAR-3 ovarian
[47] = tested on: UACC-62 melanoma
[48] = tested on: NCI-H460 lung
[49] = tested on: SF-268 CNS
[50] = tested on: HCC-2998 colon
[51] = tested on: LOX IMVI melanoma
[52] = tested on: OVCAR-4 ovarian
[53] = tested on: CAKI-1 renal
[54] = tested on: A498 renal
[55] = tested on: MDA-MB-231 breast
[56] = tested on: COLO 205 colon
[57] = tested on: SK-MEL-2 melanoma
[58] = tested on: NCI-H522 lung

Structure (SMILES): Nc1ccccc1/C=C\c1ccccc1
- TGI [1]: > 100 µM
- TGI [2]: > 100 µM
- TGI [3]: > 100 µM
- TGI [4]: > 100 µM
- TGI [5]: > 100 µM
- TGI [6]: > 100 µM
- TGI [7]: > 100 µM
- TGI [8]: > 100 µM
- TGI [9]: > 100 µM
- TGI [10]: > 100 µM
- TGI [11]: > 100 µM
- TGI [12]: > 100 µM
- TGI [13]: > 100 µM
- TGI [14]: > 100 µM
- TGI [15]: > 100 µM
- TGI [16]: > 100 µM
- TGI [17]: > 100 µM
- TGI [18]: > 100 µM
- TGI [19]: > 100 µM
- TGI [20]: > 100 µM
- TGI [21]: > 100 µM
- TGI [22]: > 100 µM
- TGI [23]: > 100 µM
- TGI [24]: > 100 µM
- TGI [25]: > 100 µM
- TGI [26]: > 100 µM
- TGI [27]: > 100 µM
- TGI [28]: > 100 µM
- TGI [29]: > 100 µM
- TGI [30]: > 100 µM
- TGI [31]: > 100 µM
- TGI [32]: > 100 µM
- TGI [33]: > 100 µM
- TGI [34]: > 100 µM
- TGI [35]: > 100 µM
- TGI [36]: > 100 µM
- TGI [37]: > 100 µM
- TGI [38]: > 100 µM
- TGI [39]: > 100 µM
- TGI [40]: > 100 µM
- TGI [41]: > 100 µM
- TGI [42]: > 100 µM
- TGI [43]: > 100 µM
- TGI [44]: > 100 µM
- TGI [45]: > 100 µM
- TGI [46]: > 100 µM
- TGI [47]: > 100 µM
- TGI [48]: > 100 µM
- TGI [49]: > 100 µM

Structure (SMILES): COc1ccc(/C=C2\Sc3nnc(C)n3N=C2c2cc(F)c(Cl)cc2Cl)cc1OC
- TGI [1]: 53.6 µM
- TGI [2]: 26.7 µM
- TGI [50]: 32.6 µM
- TGI [3]: > 100 µM
- TGI [51]: 31.4 µM
- TGI [4]: 31 µM
- TGI [5]: 51.8 µM
- TGI [52]: 28.8 µM
- TGI [53]: 23.7 µM
- TGI [6]: 34.1 µM
- TGI [7]: 37.1 µM
- TGI [8]: 27.1 µM
- TGI [9]: > 100 µM
- TGI [10]: 21.9 µM
- TGI [11]: 19.5 µM
- TGI [12]: 30.2 µM
- TGI [13]: 28.6 µM
- TGI [14]: 96.4 µM
- TGI [15]: 36.2 µM
- TGI [16]: 26.6 µM
- TGI [17]: 9.64 µM
- TGI [18]: 49.2 µM
- TGI [54]: 37.1 µM
- TGI [19]: 56.2 µM
- TGI [20]: 27.8 µM
- TGI [21]: 37.7 µM
- TGI [22]: 35.6 µM
- TGI [55]: 79.8 µM
- TGI [23]: 37.9 µM
- TGI [24]: 11.8 µM
- TGI [25]: 19.5 µM
- TGI [26]: > 100 µM
- TGI [28]: 76.9 µM
- TGI [29]: 34.5 µM
- TGI [30]: 22.7 µM
- TGI [31]: 32.5 µM
- TGI [56]: 54.3 µM
- TGI [32]: 23.2 µM
- TGI [33]: 33.3 µM
- TGI [34]: 31.2 µM
- TGI [35]: 17.6 µM
- TGI [57]: 33.6 µM
- TGI [36]: 11.1 µM
- TGI [37]: 27.5 µM
- TGI [38]: 37.7 µM
- TGI [39]: 32.8 µM
- TGI [40]: 33.1 µM
- TGI [41]: 22.6 µM
- TGI [42]: > 100 µM
- TGI [43]: 18.5 µM
- TGI [44]: 32.7 µM
- TGI [45]: > 100 µM
- TGI [46]: 16 µM
- TGI [47]: 33.4 µM
- TGI [58]: 38.7 µM
- TGI [48]: 53.1 µM
- TGI [49]: 50.9 µM
